Legend:
[1] = test system: HDACs (HeLa cell nuclear extracts); assay: HDAC enzymatic activity, Biomol Color de Lys system; assay type: biochemical; conditions: 1 hour, 25° C.
Outline: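 IC50 from sigmoidal fit of developer-terminated fluorescence (ex 350-380/em 440-460 nm). Reaction: 1 h at room temperature (25 °C), HeLa nuclear extract as HDAC source, artificial substrate, buffer of 50 mM Tris/Cl pH 8.0 with 137 mM NaCl, 2.7 mM KCl and 1 mM MgCl2.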

[2] = test system: SWI-116; assay: Cell proliferation assay (CellTiter-Glo); assay type: cell-based; conditions: Colon; 72 hours, 0.5% fetal bovine serum; read-out: antiproliferative activity IC50, SWI-116
Description: (§1) Cell Proliferation Assay:
(§2) Cancer cell lines were plated at 5,000 to 10,000 per well in 96-well flat bottomed plates with various concentration of compounds. The cells were incubated with compounds for 72 hours in the presence of 0.5% of fetal bovine serum. Growth inhibition was accessed by adenosine triphosphate (ATP) content assay using Promega CellTiter-Glo kit. Promega CellTiter-Glo kit is an ATP monitoring system based on firefly luciferase. Briefly, 16 μl of mammalian cell lysis and substrate solution was added to 84 μl of culture medium per well to lyse the cells and stabilize the ATP. The mixture was shaken and incubated for 30 minutes and subsequently the luminescence was measured.

[3] = target: T1, PI3Kα (p110α/p85α) (Homo sapiens, UniProt P42336); assay: PI3Kα ADP-Glo assay; assay type: biochemical; conditions: 20 μM PIP2, 10 μM ATP, 30 minutes
T1 construct: GST (N); made in house; host or cells: Baculovirus-infected Sf9 cells
Outline: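 Luminescent ADP-Glo detection, after depletion of residual ATP, quantified ADP made by PI3Kα phosphorylating 20 μM PIP2 at 10 μM ATP. The kinase step ran 30 min at room temperature in HEPES pH 7.4 with MgCl2, DTT and orthovanadate, using baculovirus/Sf9-expressed full-length p110α/p85α complex.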

[4] = target: T2, mTor serine/threonine protein kinase (Homo sapiens, UniProt P42345); assay: mTor kinase radioisotope assay; assay type: biochemical; conditions: 70 uM ATP, 40 minutes; read-out: m-TOR IC50
T2 construct: FLAG; made in house; host or cells: Baculovirus expression system in Sf21 cells
Outline: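 FLAG-tagged full-length recombinant human mTor from baculovirus/Sf21, incubated with p70S6K C-terminal fragment (2 mg/ml) and 70 uM ATP plus 33P-ATP tracer in 50 mM HEPES pH 7.5, 3 mM MnCl2, 40 min at room temperature. Phosphoric acid stop, filtermat capture, scintillation counting; IC50 from sigmoidal dose-response fit.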

[5] = test system: CaPan1; assay: Cell proliferation assay (CellTiter-Glo); assay type: cell-based; conditions: Homo sapiens, CAPAN-1; Pancreas; 72 hours, 0.5% fetal bovine serum; read-out: antiproliferative activity IC50, CaPan1
Description: as §1, §2

[6] = test system: Calu6; assay: Cell proliferation assay (CellTiter-Glo); assay type: cell-based; conditions: Homo sapiens, Calu-6; NSCLC; 72 hours, 0.5% fetal bovine serum; read-out: antiproliferative activity IC50, Calu6
Description: as §1, §2

[7] = test system: WiDr; assay: Cell proliferation assay (CellTiter-Glo); assay type: cell-based; conditions: Homo sapiens, Colon, 72 hours, 0.5% fetal bovine serum, read-out: antiproliferative activity IC50, WiDr
Description: as §1, §2

[8] = test system: MDA-MB-231; assay: Cell proliferation assay (CellTiter-Glo); assay type: cell-based; conditions: Homo sapiens, Breast, 72 hours, 0.5% fetal bovine serum, read-out: antiproliferative activity IC50, MDA-MB-231
Description: as §1, §2

[9] = test system: MiaPaca1; assay: Cell proliferation assay (CellTiter-Glo); assay type: cell-based; conditions: Pancreas; 72 hours, 0.5% fetal bovine serum; read-out: antiproliferative activity IC50, MiaPaca1
Description: as §1, §2

[10] = test system: CaPan2; assay: Cell proliferation assay (CellTiter-Glo); assay type: cell-based; conditions: Homo sapiens, Capan-2; Pancreas; 72 hours, 0.5% fetal bovine serum; read-out: antiproliferative activity IC50, CaPan2
Description: as §1, §2

[11] = test system: PANC-1; assay: Cell proliferation assay (CellTiter-Glo); assay type: cell-based; conditions: Homo sapiens, Pancreas, 72 hours, 0.5% fetal bovine serum, read-out: antiproliferative activity IC50, PANC-1
Description: as §1, §2

[12] = test system: SW1990; assay: Cell proliferation assay (CellTiter-Glo); assay type: cell-based; conditions: Homo sapiens, Pancreas, 72 hours, 0.5% fetal bovine serum, read-out: antiproliferative activity IC50, SW1990
Description: as §1, §2

[13] = test system: CFPAC-1; assay: Cell proliferation assay (CellTiter-Glo); assay type: cell-based; conditions: Homo sapiens, Pancreas, 72 hours, 0.5% fetal bovine serum, read-out: antiproliferative activity IC50, CFPAC-1
Description: as §1, §2

[14] = target: T3, PI3Kγ (p120γ) (Homo sapiens, UniProt P48736); assay: PI3Kγ ADP-Glo assay; assay type: biochemical; conditions: 20 μM PIP2, 10 μM ATP, 90 minutes
T3 construct: His (N); made in house; host or cells: Baculovirus-infected Sf9 cells
Description: (d) an In Vitro Assay which Determines the Ability of a Test Compound to Inhibit PI3Kγ.
(§3) Activity of PI3Kγ was measured using ADP-Glo assay from Promega. PI3Kγ, N-terminal His-tagged recombinant full-length human p120γ (GenBank, Accession No. AF327656) was expressed in a Baculovirus infected Sf9 cell expression system. The ADP-Glo assay was performed to measure the amount of ADP generated from ATP hydrolysis coupled with PIP2 phosphorylation by the purified recombinant PI3Kγ (p110δ/p85α). PI3Kγ was incubated with 20 μM PIP2 substrate in the reaction buffer (10 mM Tris-HCl, pH 7.5, 50 mM NaCl, 5 mM MgCl2, 10 μM ATP and 0.5% DMSO) for 90 minutes at room temperature. The ADP generated was then detected by ADP-Glo assay from Promega, a luminescent ADP detection assay. The ADP-Glo assay is performed in two steps; first, after the kinase reaction, ADP-Glo Reagent is added to terminate the kinase reaction and deplete the remaining ATP. Second, the Kinase Detection Reagent is added to simultaneously convert ADP to ATP and allow the newly synthesized ATP to be measured using a luciferase/luciferin reaction.

[15] = target: T4, PI3Kδ (p110δ/p85α) (Homo sapiens, UniProt O00329); assay: PI3Kδ ADP-Glo assay; assay type: biochemical; conditions: 20 μM PIP2, 10 μM ATP, 90 minutes
T4 construct: GST (N); made in house; host or cells: Baculovirus-infected Sf9 cells
Description: (c) an In Vitro Assay which Determines the Ability of a Test Compound to Inhibit PI3Kδ.
as §3, with “PI3Kδ” for “PI3Kγ”, “PI3Kδ, a complex of” for “PI3Kγ,”, “GST-tagged” for “His-tagged”, “p110δ” for “p120γ”, “NM_005026) and untagged recombinant full length human p85α (GenBank Accession No. XM—043865) were co-expressed” for “AF327656) was expressed”

[16] = target: T5, PI3Kβ (p110β/p85α) (Homo sapiens, UniProt P42338); assay: PI3Kβ ADP-Glo assay; assay type: biochemical; conditions: 20 μM PIP2, 10 μM ATP, 90 minutes
T5 construct: His (N); made in house; host or cells: Baculovirus-infected Sf9 cells
Description: (B) an In Vitro Assay which Determines the Ability of a Test Compound to Inhibit PI3Kβ.
as §3, with “PI3Kβ” for “PI3Kγ”, “[…], a complex of” for “PI3Kγ,”, “p110β” for “p120γ”, “NM_006219) and untagged recombinant full length human p85α (GenBank Accession No. XM—043865) were co-expressed” for “AF327656) was expressed”, “PI3Kβ (p110β/p85α). PI3Kβ” for “PI3Kγ (p110δ/p85α). PI3Kγ”

[17] = test system: OPM-2; assay: Cell proliferation assay (CellTiter-Glo); assay type: cell-based; conditions: Homo sapiens, Multiple Myeloma, 72 hours, 0.5% fetal bovine serum, read-out: antiproliferative activity IC50, OPM-2
Description: as §1, §2

T1 sequence (P42336 whole entry): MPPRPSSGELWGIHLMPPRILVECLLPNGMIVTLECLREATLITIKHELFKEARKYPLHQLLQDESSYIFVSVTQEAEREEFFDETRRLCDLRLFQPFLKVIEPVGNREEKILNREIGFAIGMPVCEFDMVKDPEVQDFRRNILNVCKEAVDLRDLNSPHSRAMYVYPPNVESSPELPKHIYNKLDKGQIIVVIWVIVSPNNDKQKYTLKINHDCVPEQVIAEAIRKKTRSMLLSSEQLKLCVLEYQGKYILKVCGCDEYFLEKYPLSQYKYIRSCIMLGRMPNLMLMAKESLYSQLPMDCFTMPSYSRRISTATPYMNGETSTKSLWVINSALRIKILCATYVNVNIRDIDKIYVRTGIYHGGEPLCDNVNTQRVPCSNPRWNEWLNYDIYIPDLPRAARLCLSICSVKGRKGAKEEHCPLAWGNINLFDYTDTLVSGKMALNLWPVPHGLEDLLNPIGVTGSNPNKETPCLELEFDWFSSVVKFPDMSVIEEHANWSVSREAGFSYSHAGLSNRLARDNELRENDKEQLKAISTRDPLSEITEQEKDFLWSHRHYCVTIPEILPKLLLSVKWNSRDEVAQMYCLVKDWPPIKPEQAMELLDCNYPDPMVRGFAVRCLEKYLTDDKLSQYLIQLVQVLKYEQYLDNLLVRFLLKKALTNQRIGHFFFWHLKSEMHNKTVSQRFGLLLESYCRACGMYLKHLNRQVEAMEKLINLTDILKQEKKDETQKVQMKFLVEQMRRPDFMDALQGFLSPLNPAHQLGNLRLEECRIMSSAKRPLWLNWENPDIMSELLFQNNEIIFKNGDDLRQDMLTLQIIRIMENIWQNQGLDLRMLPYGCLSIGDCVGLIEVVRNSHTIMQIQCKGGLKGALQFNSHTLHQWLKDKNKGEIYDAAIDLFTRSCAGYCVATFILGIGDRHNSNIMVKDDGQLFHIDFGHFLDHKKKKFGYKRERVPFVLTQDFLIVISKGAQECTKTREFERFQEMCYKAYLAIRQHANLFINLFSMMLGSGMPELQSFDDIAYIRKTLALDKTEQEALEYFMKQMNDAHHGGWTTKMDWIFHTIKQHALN
T1 sequence (P27986 whole entry partner): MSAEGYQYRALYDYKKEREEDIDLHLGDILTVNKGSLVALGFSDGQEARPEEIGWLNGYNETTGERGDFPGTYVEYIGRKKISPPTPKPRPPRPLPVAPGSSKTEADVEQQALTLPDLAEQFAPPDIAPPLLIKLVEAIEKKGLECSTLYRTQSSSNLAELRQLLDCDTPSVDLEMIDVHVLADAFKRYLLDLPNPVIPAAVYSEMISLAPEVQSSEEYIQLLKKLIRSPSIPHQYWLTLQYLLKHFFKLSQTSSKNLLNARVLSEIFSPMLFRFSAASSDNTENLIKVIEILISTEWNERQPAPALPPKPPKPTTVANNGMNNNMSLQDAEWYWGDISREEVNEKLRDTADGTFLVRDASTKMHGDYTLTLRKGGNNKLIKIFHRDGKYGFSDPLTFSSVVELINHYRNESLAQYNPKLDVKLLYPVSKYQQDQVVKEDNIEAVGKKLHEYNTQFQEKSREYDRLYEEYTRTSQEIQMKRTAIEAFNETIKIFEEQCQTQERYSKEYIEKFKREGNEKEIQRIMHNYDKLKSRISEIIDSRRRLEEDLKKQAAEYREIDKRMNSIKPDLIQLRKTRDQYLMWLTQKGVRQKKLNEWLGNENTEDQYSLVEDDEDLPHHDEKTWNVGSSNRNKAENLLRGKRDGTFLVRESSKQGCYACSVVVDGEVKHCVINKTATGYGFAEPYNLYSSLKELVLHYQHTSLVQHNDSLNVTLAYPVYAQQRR
T5 sequence (P42338 whole entry): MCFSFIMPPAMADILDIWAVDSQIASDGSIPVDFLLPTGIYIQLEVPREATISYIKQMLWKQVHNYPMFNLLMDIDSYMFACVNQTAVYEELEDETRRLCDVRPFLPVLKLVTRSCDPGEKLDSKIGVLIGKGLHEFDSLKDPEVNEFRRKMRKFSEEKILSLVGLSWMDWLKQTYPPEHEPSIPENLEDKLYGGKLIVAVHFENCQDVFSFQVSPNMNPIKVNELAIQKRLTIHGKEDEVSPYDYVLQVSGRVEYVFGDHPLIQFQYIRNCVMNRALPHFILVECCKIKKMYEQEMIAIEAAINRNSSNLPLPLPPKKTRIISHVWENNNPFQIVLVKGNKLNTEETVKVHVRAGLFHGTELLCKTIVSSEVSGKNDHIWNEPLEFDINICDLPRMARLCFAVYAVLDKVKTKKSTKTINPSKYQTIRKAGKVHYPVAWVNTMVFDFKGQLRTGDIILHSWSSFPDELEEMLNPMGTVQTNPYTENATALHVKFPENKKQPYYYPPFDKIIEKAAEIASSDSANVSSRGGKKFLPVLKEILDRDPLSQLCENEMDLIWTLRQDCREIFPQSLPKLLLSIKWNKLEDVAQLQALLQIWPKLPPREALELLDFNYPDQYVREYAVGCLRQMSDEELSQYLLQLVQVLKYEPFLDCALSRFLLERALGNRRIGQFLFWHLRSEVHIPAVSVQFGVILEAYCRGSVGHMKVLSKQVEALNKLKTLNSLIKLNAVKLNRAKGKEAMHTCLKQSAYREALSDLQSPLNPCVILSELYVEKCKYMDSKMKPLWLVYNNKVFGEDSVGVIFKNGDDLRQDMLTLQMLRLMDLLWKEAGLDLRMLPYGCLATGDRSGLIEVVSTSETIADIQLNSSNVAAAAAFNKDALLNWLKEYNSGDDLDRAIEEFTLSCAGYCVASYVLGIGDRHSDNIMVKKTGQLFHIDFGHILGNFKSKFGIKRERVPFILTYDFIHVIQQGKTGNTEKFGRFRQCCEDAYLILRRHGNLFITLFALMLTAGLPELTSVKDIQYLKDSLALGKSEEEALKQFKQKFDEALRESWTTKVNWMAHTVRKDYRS
T5 sequence (P27986 whole entry partner): as the sequence (P27986 whole entry partner) above
T3 sequence (P48736 whole entry): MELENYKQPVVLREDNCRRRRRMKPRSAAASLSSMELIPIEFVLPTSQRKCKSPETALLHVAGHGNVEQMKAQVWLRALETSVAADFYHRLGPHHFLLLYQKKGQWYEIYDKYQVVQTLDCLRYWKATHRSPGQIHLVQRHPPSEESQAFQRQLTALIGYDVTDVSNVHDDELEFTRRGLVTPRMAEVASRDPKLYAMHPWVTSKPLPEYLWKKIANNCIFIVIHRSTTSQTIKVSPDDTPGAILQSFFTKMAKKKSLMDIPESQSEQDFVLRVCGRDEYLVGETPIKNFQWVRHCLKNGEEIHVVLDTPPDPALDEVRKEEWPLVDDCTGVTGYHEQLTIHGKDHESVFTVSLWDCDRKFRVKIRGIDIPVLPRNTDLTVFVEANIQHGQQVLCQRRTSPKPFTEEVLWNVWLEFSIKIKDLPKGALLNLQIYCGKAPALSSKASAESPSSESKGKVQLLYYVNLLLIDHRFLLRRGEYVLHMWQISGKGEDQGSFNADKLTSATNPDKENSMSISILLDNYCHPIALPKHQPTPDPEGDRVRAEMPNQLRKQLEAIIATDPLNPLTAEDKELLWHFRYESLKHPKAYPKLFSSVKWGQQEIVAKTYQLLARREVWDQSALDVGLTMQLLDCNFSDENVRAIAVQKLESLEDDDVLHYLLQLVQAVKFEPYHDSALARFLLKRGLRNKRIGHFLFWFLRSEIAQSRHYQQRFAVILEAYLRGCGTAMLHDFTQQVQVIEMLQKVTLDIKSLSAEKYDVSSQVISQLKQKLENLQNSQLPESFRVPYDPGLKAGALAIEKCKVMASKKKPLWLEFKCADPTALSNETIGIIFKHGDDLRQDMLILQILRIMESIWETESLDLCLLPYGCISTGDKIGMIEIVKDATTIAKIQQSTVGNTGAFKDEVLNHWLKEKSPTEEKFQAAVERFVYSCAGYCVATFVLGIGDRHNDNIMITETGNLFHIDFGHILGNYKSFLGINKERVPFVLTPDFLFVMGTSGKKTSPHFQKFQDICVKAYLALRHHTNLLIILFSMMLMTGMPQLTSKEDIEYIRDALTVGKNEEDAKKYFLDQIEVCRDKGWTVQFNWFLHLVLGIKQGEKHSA
T4 sequence (O00329 whole entry): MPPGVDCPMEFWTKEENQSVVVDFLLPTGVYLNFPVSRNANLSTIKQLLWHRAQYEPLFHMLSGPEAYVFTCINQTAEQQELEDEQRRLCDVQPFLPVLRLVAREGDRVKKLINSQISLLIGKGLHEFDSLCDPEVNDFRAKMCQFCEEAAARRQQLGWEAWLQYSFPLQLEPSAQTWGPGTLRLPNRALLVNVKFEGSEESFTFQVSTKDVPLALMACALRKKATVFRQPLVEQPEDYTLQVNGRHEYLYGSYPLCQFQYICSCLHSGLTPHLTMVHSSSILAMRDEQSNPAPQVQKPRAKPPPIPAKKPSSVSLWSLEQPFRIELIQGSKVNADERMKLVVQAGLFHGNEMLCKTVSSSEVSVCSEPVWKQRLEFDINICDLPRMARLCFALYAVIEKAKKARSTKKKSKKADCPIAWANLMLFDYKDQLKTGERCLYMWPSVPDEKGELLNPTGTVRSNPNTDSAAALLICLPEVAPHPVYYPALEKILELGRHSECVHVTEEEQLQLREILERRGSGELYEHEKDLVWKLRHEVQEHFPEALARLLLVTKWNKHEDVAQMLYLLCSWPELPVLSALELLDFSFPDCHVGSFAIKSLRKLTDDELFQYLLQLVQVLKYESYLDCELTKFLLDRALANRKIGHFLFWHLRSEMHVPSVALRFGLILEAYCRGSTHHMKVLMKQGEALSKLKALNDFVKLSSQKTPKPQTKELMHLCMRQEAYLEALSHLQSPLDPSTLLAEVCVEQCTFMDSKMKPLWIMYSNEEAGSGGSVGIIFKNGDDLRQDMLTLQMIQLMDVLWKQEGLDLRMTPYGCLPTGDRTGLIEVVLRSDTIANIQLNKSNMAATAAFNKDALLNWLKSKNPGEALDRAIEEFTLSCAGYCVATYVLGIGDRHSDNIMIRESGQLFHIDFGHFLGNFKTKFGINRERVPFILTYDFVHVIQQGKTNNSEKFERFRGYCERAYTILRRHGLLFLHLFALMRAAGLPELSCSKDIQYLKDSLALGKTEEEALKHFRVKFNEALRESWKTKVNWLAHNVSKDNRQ
T4 sequence (P27986 whole entry partner): as the sequence (P27986 whole entry partner) above

IC50 [1]	IC50 [3]	IC50 [4]	IC50 [6]	IC50 [8]	IC50 [9]	IC50 [11]	IC50 [12]	IC50 [14]	IC50 [15]	IC50 [16]	melting point	SMILES	IC50 [2]	IC50 [5]	IC50 [7]	IC50 [10]	IC50 [13]	IC50 [17]
< 0.1 µM	< 0.1 µM	0.1 to 1 µM	–	–	–	–	–	–	–	–	–	CC(c1cc2nc(-c3cccc4[nH]ncc34)nc(N3CCOCC3)c2s1)N(C)c1ncc(C(=O)NO)cn1 (stereo not shown) [Compound 70]	0.01 to 0.1 µM	–	–	–	–	–
–	–	–	0.1 to 1 µM	> 10 µM	1 to 10 µM	1 to 10 µM	0.01 to 0.1 µM	–	–	–	–	Cn1c(=O)n(-c2ccc(C(C)(C)C#N)cc2)c2c3cc(-c4cnc5ccccc5c4)ccc3ncc21 [BEZ-235, 2-methyl-2-(4-(3-methyl-2-oxo-8-(quinolin-3-yl)-2,3-dihydro-1H-imidazo[4,5-c]quinolin-1-yl)phenyl)propanenitrile, reference compound]	–	0.1 to 1 µM	1 to 10 µM	1 to 10 µM	1 to 10 µM	–
< 0.1 µM	< 0.1 µM	1 to 10 µM	–	–	–	–	–	< 0.1 µM	0.1 to 1 µM	< 0.1 µM	209 to 221 °C	O=C(NO)c1cnc(N2CCN(Cc3cc4nc(-c5cccc6[nH]ncc56)nc(N5CCOCC5)c4s3)CC2)nc1 [Compound 14]	–	–	–	–	–	–
< 0.1 µM	< 0.1 µM	–	–	–	–	–	–	< 0.1 µM	< 0.1 µM	< 0.1 µM	234 to 237 °C	O=C(NO)c1cnc(NCc2cc3nc(-c4cccc5[nH]ncc45)nc(N4CCOCC4)c3s2)nc1 [Compound 53, 2-((2-(1H-indazol-4-yl)-4-morpholinothieno[3,2-d]pyrimidin-6-yl)methylamino)-N-hydroxypyrimidine-5-carboxamide]	–	–	–	–	–	–
< 0.1 µM	< 0.1 µM	< 0.1 µM	0.01 to 0.1 µM	0.01 to 0.1 µM	0.01 to 0.1 µM	0.01 to 0.1 µM	0.01 to 0.1 µM	–	–	–	160 to 164 °C	CN(Cc1cc2nc(-c3cccc(CO)c3)nc(N3CCOCC3)c2s1)c1ncc(C(=O)NO)cn1 [Compound 138, N-hydroxy-2-(((2-(3-(hydroxymethyl)phenyl)-4-morpholinothieno[3,2-d]pyrimidin-6-yl)methyl)(methyl)amino)pyrimidine-5-carboxamide]	–	0.01 to 0.1 µM	0.01 to 0.1 µM	0.01 to 0.1 µM	0.01 to 0.1 µM	< 0.01 µM
